# Reference: patent publication US8158621B2, “Methods of treating or preventing autoimmune diseases with 2,4-pyrimidinediamine compounds” (Rigel Pharmaceuticals, Inc., priority 2002, dated 2012)
# Tested on: Human Jurkat T-cells (clone N)
# Assay: Jurkat T-cell activation (anti-TCR, CD69 upregulation)
# Type: cell-based
# Settings: not given
# How it was run: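 Jurkat cells in RPMI + 5% FBS preincubated with compound 1 h at 37 °C, then stimulated with anti-TCR C305 at 500 ng/ml for 20 h. CD69 surface expression stained with anti-CD69-APC and read by flow cytometry; IC50 versus solvent-only control.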
row,SMILES,IC50 [µM]
1,OCCNc1cccc(Nc2ncc(F)c(Nc3ccc4c(c3)OCCO4)n2)c1 [Compound R950208],1.77
2,Oc1cccc(Nc2nc(Nc3ccc(OCc4nnn[nH]4)cc3)ncc2F)c1 [Compound R920818],> 10
3,Cc1ccc(-c2ccccc2)cc1Nc1ncc(F)c(Nc2cc(-c3ccccc3)ccc2C)n1 [Compound R926402],> 10
4,CS(=O)(=O)Nc1cccc(Nc2ncc(F)c(Nc3cccc(NS(C)(=O)=O)c3)n2)c1 [Compound R950100],5.67
5,COc1cc(Nc2ncc(F)c(Nc3ccc4c(cnn4C)c3)n2)cc(OC)c1 [Compound R935214],1.38
6,CNC(=O)COc1cccc(Nc2ncc(F)c(Nc3ccc4c(c3)C=CCO4)n2)c1 [Compound R950385],2.58
7,CN1CCN(C(=O)CNc2cccc(Nc3ncc(F)c(Nc4ccc5c(c4)OCCO5)n3)c2)CC1 [Compound R950194],5.13
8,CNC(=O)COc1cccc(Nc2ncc(F)c(Nc3cc(C(=O)OC)cc(C(F)(F)F)c3)n2)c1 [Compound R926862],7.75
9,COC(=O)COc1cccc(Nc2ncc(F)c(Nc3cccc(O)c3)n2)c1 [Compound R945118],9.49
10,O=C(COc1cccc(Nc2ncc(F)c(Nc3cccc(O)c3)n2)c1)N1CCNCC1 [Compound R926773],1.84
11,CCOC(=O)COc1ccc(Nc2ncc(Br)c(Nc3cccc(O)c3)n2)cc1 [Compound R926396],6.59
12,Cc1cc(Nc2nc(Nc3cccc(OCCN4CCOCC4)c3)ncc2F)cc(C)c1O [Compound R940255],1.51
13,Oc1cccc(Nc2nc(Nc3ccc(OCC4=NCCCN4)cc3)ncc2F)c1 [Compound R945169],2.38
14,CCOC(=O)C(C)(C)Oc1cccc(Nc2ncc(F)c(Nc3ccc4cc[nH]c4c3)n2)c1 [Compound R926909],4.65
15,CNC(=O)COc1cc(Nc2ncc(F)c(Nc3cccc(O)c3)n2)ccc1C [Compound R926757],2.74
16,O=C1OCc2ccc(Nc3ncc(F)c(Nc4ccc5c(c4)OCCO5)n3)cc21 [Compound R926786],7.36
17,CNC(=O)COc1cccc(Nc2ncc(F)c(Nc3ccc4c(c3)NCCO4)n2)c1 [Compound R920395],0.726
18,COc1ccc(-c2ccccc2)cc1Nc1ncc(F)c(Nc2cc(-c3ccccc3)ccc2OC)n1 [Compound R926400],> 10
19,CSc1nc2ccc(Nc3ncc(F)c(Nc4ccc5c(c4)OCCO5)n3)cc2s1 [Compound R950201],4.5
20,Cc1cc(Nc2nc(Nc3cccc(OCCN4CCNCC4)c3)ncc2F)cc(Cl)c1O [Compound R945150],1.11
21,N#CCOc1ccc(Nc2ncc(F)c(Nc3ccc(OCC#N)cc3)n2)cc1 [Compound R945032],15.2
22,O=C(CNc1cccc(Nc2ncc(F)c(Nc3cccc(NCCO)c3)n2)c1)NCCN1CCOCC1 [Compound R950239],> 10
23,NCCNC(=O)c1cc2cc(Nc3ncc(F)c(Nc4ccc5oc(C(=O)NCCN)cc5c4)n3)ccc2o1 [Compound R950168],10.7
24,O=C(COc1cccc(Nc2ncc(F)c(Nc3ccc4c(c3)OCCO4)n2)c1)N1CCOCC1 [Compound R926484],> 10
25,OB(O)c1cccc(Nc2ncc(F)c(Nc3cccc(B(O)O)c3)n2)c1 [Compound R926836],14.5
26,CCOC(=O)COc1cccc(Nc2ncc(F)c(Nc3cc(Cl)c(O)c(Cl)c3)n2)c1 [Compound R950185],> 10
27,COc1ccc(Nc2ncc(F)c(Nc3ccc(OC)c(-c4ccccc4)c3)n2)cc1-c1ccccc1 [Compound R926399],> 10
28,COC(=O)c1cc2ccc(Nc3ncc(F)c(Nc4cccc(O)c4)n3)cc2[nH]1 [Compound R926903],> 10

# Second part, the compound after the results:
row,IC50 [µM],SMILES
1,> 10,COc1cc(-c2ccccc2)c(C)cc1Nc1ncc(F)c(Nc2cc(C)c(-c3ccccc3)cc2OC)n1 [Compound R926401]
2,6.24,CNC(=O)COc1cccc(Nc2ncc(F)c(Nc3ccc(C(F)(F)F)cc3)n2)c1 [Compound R926880]
3,0.46,Oc1cccc(Nc2ncc(F)c(Nc3ccc(OCc4nc(-c5ccccc5)no4)cc3)n2)c1 [Compound R935138]
4,4.4,CC(C)c1cccc(Nc2nc(Nc3ccc4oc(CO)cc4c3)ncc2F)c1 [Compound R940286]
5,4.27,Oc1cccc(Nc2ncc(F)c(Nc3ccc(OCCN4CCOCC4)cc3)n2)c1 [Compound R926710]
6,3.23,Cc1ccc(Nc2nc(Cl)ncc2F)cc1CNC(=O)OC(C)(C)C [Compound R926924]
7,0.732,Cn1ncc2cc(Nc3ncc(F)c(Nc4cccc(O)c4)n3)ccc21 [Compound R935194]
8,> 10,CCOC(=O)COc1cccc(Nc2ncc(F)c(Nc3cc(OC)cc(OC)c3)n2)c1 [Compound R926795]
9,> 10,CCOC(=O)COc1ccc(Nc2ncc(C(F)(F)F)c(Nc3ccc(OCC(=O)OCC)cc3)n2)cc1 [Compound R925862]
10,0.973,O=C(c1cc2cc(Nc3ncc(F)c(Nc4ccc5c(c4)OCCO5)n3)ccc2o1)N1CCCNCC1 [Compound R926768]
11,1.78,O=C(COc1cccc(Nc2ncc(F)c(Nc3ccc4c(c3)OCCO4)n2)c1)N1CCNCC1 [Compound R926504]
12,16.2,COC(=O)COc1cccc(Nc2ncc(F)c(Nc3cc(C)c(O)c(Cl)c3)n2)c1 [Compound R945148]
13,0.393,CNC(=O)COc1cccc(Nc2ncc(F)c(Nc3ccc(C)c(O)c3)n2)c1 [Compound R926753]
14,4.57,COC(=O)Cn1ncc2cc(Nc3ncc(F)c(Nc4ccc5c(c4)OCCO5)n3)ccc21 [Compound R935223]
15,> 10,CCOC(=O)CNC(=O)Nc1c(Nc2ccc(OCC(=O)OCC)cc2)nc(Nc2ccc(OCC(=O)OCC)cc2)nc1C(=O)OCC [Compound R926587]
16,2.16,Fc1cnc(Nc2ccc3c(c2)OCCO3)nc1Nc1ccc(OCc2nc(-c3ccccc3)no2)cc1 [Compound R935140]
17,> 10,COC(=O)COc1ccc(Nc2ncc(F)c(Nc3ccc(OCC(N)=O)cc3)n2)cc1 [Compound R945052]
18,> 10,CCOC(=O)c1cnc(Nc2cccc(OCC(=O)NC)c2)nc1Nc1cc(OC)cc(OC)c1 [Compound R926801]
19,4.24,CN(CCO)C(=O)COc1cccc(Nc2ncc(F)c(Nc3ccc4c(c3)OCCO4)n2)c1 [Compound R926766]
20,2.19,CNC(=O)COc1cccc(Nc2ncc(F)c(Nc3cccc(C(=O)c4ccccc4)c3)n2)c1 [Compound R950372]
21,1.41,CC(C)Oc1ccc(Nc2nc(Nc3ccc4c(cnn4CCCO)c3)ncc2F)cc1 [Compound R935307]

# Same assay, conditions: Homo sapiens, Jurkat
row,SMILES,IC50 [µM]
1,Fc1cnc(NC(c2ccccc2)c2ccccc2)nc1NC(c1ccccc1)c1ccccc1 [Compound R935005],> 10
2,O=C(NCCO)c1cc2cc(Nc3ncc(F)c(Nc4ccc5c(c4)OCCO5)n3)ccc2o1 [Compound R926498],5.73
3,CC(C)Oc1ccc(Nc2nc(Nc3ccc(OCC(O)CO)cc3)ncc2F)cc1 (centres unmarked) [Compound R935175],1.74
4,Clc1cccc(-c2cnc(Nc3ccc4c(c3)OCCO4)nc2Nc2ccc3c(c2)OCCO3)c1 [Compound R925787],> 10
5,COC(=O)C=C1C=CC=C(Nc2ncc(F)c(NC3=CC=CC(=CC(=O)OC)C3)n2)C1 [Compound R935114],> 10
6,Fc1cnc(Nc2ccc(C(F)(F)F)cc2)nc1Nc1ccc(C(F)(F)F)cc1 [Compound R926016],> 10
7,CNC(=O)c1cccc(Nc2ncc(F)c(Nc3cccc(O)c3)n2)c1 [Compound R926936],7.88
8,OCCOc1ccc(Nc2ncc(F)c(Nc3ccc4oc(CO)cc4c3)n2)cc1 [Compound R935174],3.99
9,CCOc1ccc(Nc2cc(Cl)nc(Nc3ccc(OCC)cc3)n2)cc1 [Compound R926072],> 10
10,Cc1onc(-c2ccccc2)c1Nc1ncc(F)c(Nc2ccc3c(c2)OCCO3)n1 [Compound R926743],> 10
11,Cc1cc(CNc2nc(Nc3cccc(O)c3)ncc2F)c(C)o1 [Compound R945151],> 10
12,COC(=O)c1ccc(Nc2ncc(F)c(Nc3ccc(C(=O)OC)cc3)n2)cc1 [Compound R945034],> 10
13,CCOC(=O)c1cc2cccc(Nc3ncc(F)c(Nc4cc(OC)cc(OC)c4)n3)c2[nH]1 [Compound R926803],> 10
14,Clc1cc(Nc2ccc3c(c2)OCCO3)nc(Nc2ccc3c(c2)OCCO3)n1 [Compound R926245],11.1
15,CCOc1ccc(Nc2ncc(F)c(Nc3ccc(OC)c(OC)c3)n2)cc1 [Compound R926145],17.7

# The next lines start with the values.
row,IC50 [µM],SMILES
1,> 10,CCOC(=O)Cc1ccc(Nc2ncc(C#N)c(Nc3ccc(CC(=O)OCC)cc3)n2)cc1 [Compound R926662]
2,> 10,Fc1cc(Nc2ncc(F)c(Nc3ccc(C(F)(F)F)c(F)c3)n2)ccc1C(F)(F)F [Compound R926018]
3,> 10,Nc1c(F)ccc(Nc2ccnc(Nc3ccc(F)c(N)c3F)n2)c1F [Compound R950131]
4,> 10,CC(Nc1nc(Nc2cccc(O)c2)ncc1F)c1ccc(F)cc1 (racemic) [Compound R935021]
5,> 10,Brc1cnc(Nc2cccc(-c3ccccc3)c2)nc1Nc1cccc(-c2ccccc2)c1 [Compound R925803]
6,> 10,COC(=O)C1Cc2cc(N(c3ccc(C(C)(C)C)cc3)c3ncc(F)c(N)n3)ccc2O1 (centres unmarked) [Compound R926719]
7,> 10,Fc1cccc(Nc2ncc(F)c(Nc3ccc4c(c3)OCCO4)n2)c1 [Compound R926221]
8,3.28,Oc1cccc(Nc2nc(Nc3cccc(-c4cc[nH]n4)c3)ncc2F)c1 [Compound R926841]
9,> 10,Fc1cnc(Nc2cccc(OC(F)(F)F)c2)nc1Nc1cccc(OC(F)(F)F)c1 [Compound R926038]
10,> 10,Nc1c(F)ccc(Nc2ncc(F)c(Nc3ccc(F)c(N)c3F)n2)c1F [Compound R950138]
11,1.31,COC(=O)c1cc(Nc2ncc(F)c(Nc3cccc(O)c3)n2)ccc1OC [Compound R940301]
12,> 10,CCOC(=O)c1nc(Nc2cccc(O)c2)nc(Nc2cccc(O)c2)c1N [Compound R925856]
13,3.46,Fc1cnc(Nc2ccc3c(c2)OCCO3)nc1NCc1csc2ccc(Cl)cc12 [Compound R926721]
